“Also recorded” adds a separate entry of the source. Read-outs that look alike come from different tables or passages of the source.
What was measured:
[1] = system: hairless mice (UV-induced skin thickening); test: Eight dose UV exposure, bi-folded epidermal thickness in hairless wild type and β2-AR knockout mice; format: in vivo, mouse; conditions: 5 μM in 200 μL acetone topically every other day, 200 mJ/cm^2 UV, eight irradiations
Procedure: The Western University of Health Sciences’ Institutional Animal Care and Use Committee (WesternU IACUC) approved all animal studies prior to initiating any experiments. The animal studies were carried out under WesternU IACUC recommendations and guidelines, which follow NIH guidelines. Mice had access to water and food ad libitum and housed on a 12-hour light/dark cycle with 35% humidity. Homozygous β1-AR and β2-AR null mice (Adrb1^tm1Bkk Adrb2^tm1Bkk/J Stock Number 003810) were purchased from Jackson Laboratory (Bar Harbor, ME); the double knockout mice were characterized previously. The double knockout mice were bred with C57BL/6J from Jackson Lab to generate a heterozygous F1 generation. The F1 generation was bred together to generate the F2 generation of which 1/16th of the offspring were a β2-AR knockout mouse. SKH-1 mice purchased from Charles River (Wilmington, MA) were bred with the β2-AR knockout mice generating a second heterozygous F1 generation. The F1 generation was bred together to generate the F2 generation of which 1/16th of the offspring were a hairless β2-AR knockout mouse. The F2 generation was backcrossed with a new batch of SKH-1 from Charles River to generate mice more efficiently. The mice used in this study are 75% SKH-1 and 25% mixed background. Following experimentation, and to cull the unused mice in a colony, mice were euthanized via exposure to 32% Isoflurane followed by cervical dislocation to ensure euthanization prior to disposal.
The first two weeks were pretreatment and the second two weeks were during the UV irradiation procedure, but drugs were applied the day after UV exposure to avoid sunscreen effects. All groups involved with UV were irradiated with 200 mJ/cm^2 dose of UV every other day for a total of eight irradiations. Bi-folded epidermal thickness was measured using a digital caliper before drug treatment on non-radiation days. Three skin thickness measurements were taken along the left, middle, and right dorsal epidermal layer, and the mean thickness was recorded for each mouse.

[2] = system: JB6 P+ cells; test: Anchorage-independent growth assay in soft agar (EGF-induced JB6 P+ colony formation); format: cell-based, mouse; conditions: for minimal effective concentration / IC50 / Emax: Mus musculus; for minimal effective concentration / IC50 / effect on EGF-mediated transformation of JB6 P+ cells, words: 10 ng/mL EGF; for minimal effective concentration: first concentration with expected statistical decrease, read-out: Soft Agar Assay Log IΔ2*PSD (converted); for Emax: efficacy of inhibition of colony formation, reported if non-toxic
Procedure: Ten ng/mL EGF was used to promote the anchorage-independent growth of JB6 cells. […] Plates were incubated at 37°C, 5% CO2 for 14 days. Colonies with greater than ten cells were counted manually under a microscope. […] Normalization allowed for comparison of data over a range of JB6 P+ cell cultures, passages, and experimental time for the shRNA studies, as well as control for variation in the EGF response, and importantly allowed for a direct comparison to all concentration-response experiments including the toxicity assays. […] All group sizes were determined via previous studies to provide statistically meaningful data. In the soft agar assays, key results were repeated with different JB6 P+ cells to confirm the results. Similarly, the shRNA studies were conducted with three independent concentration-response curves with different JB6 P+ cell stocks. […] For two sample comparisons a t-test was utilized, and when comparing multiple samples a One-, Two-, or Three-Factor ANOVA followed by Tukey-Kramer post hoc test was utilized depending on the data. For all tests, statistical difference was donated when p < 0.05. […] The I[…]*PSD is expressed in x-axis units (log [M]) as is an IC50 and it represents the first concentration where it is expected to observe a statistical decrease in the measured signal. […] Using the formula provided by GraphPad Prism or a straight line for the point-to-point graphs, the X-axis value for point Y was determined. The error is ascribed to this measurement via adding and subtracting the pooled standard deviation (PSD) to/from point Y generating point Y ± PSD. The two new points were then transformed to the X-axis units as was done for point Y creating an asymmetric error in sigmoidal plots. When the error was asymmetric, the larger error value was chosen to err on the conservative side. See S1 Fig for a pictoral explination of the method. The data is presented as I[…]*PSD ± error.

[3] = system: β2-AR; set-up: method as in as printed in each cell (43-46, 48-54, 56-58); conditions: as described in the references; ref (43-46, 48-54, 56-58); cited from earlier work
[4] = system: JB6 P+ cells; test: SRB cytotoxicity assay; format: cell-based, mouse; conditions: for SRB Assay Log IΔ2*PSD: NT = no toxicity at any concentration tested; for Toxicity label: Toxic = no 10-fold difference between IΔ2*PSD from soft agar and SRB assays
Procedure: 96-well plates were seeded with 3x10^3 JB6 P+ cells per well and allowed to attach overnight. […] Cell viability was determined using Sulforhodamine B (SRB) assay from Sigma-Aldrich according to the manufacturer’s protocol. Cellular protein content was measured using a Bio-Tek μQuant plate reader with KCJunior software.
Concentration-response curves were normalized so that the EGF positive control on each 96-well plate was set to 100% and the control wells on each plate were set to 0%. Toxicity assays (SRB and MTS) were normalized so that the control on each plate represented 100% viability. Normalization allowed for comparison of data over a range of JB6 P+ cell cultures, passages, and experimental time for the shRNA studies, as well as control for variation in the EGF response, and importantly allowed for a direct comparison to all concentration-response experiments including the toxicity assays. […] All group sizes were determined via previous studies to provide statistically meaningful data. In the soft agar assays, key results were repeated with different JB6 P+ cells to confirm the results. Similarly, the shRNA studies were conducted with three independent concentration-response curves with different JB6 P+ cell stocks. […] For two sample comparisons a t-test was utilized, and when comparing multiple samples a One-, Two-, or Three-Factor ANOVA followed by Tukey-Kramer post hoc test was utilized depending on the data. For all tests, statistical difference was donated when p < 0.05.
The IΔ2*PSD is expressed in x-axis units (log [M]) as is an IC50 and it represents the first concentration where it is expected to observe a statistical decrease in the measured signal.
Using the formula provided by GraphPad Prism or a straight line for the point-to-point graphs, the X-axis value for point Y was determined. The error is ascribed to this measurement via adding and subtracting the pooled standard deviation (PSD) to/from point Y generating point Y ± PSD. The two new points were then transformed to the X-axis units as was done for point Y creating an asymmetric error in sigmoidal plots. When the error was asymmetric, the larger error value was chosen to err on the conservative side. See S1 Fig for a pictoral explination of the method. The data is presented as IΔ2*PSD ± error.

[5] = system: JB6 P+ cells; conditions: cited from earlier work
[6] = target: α1D-AR; conditions: read-out: Kd towards the α1D-AR; cited from earlier work
[7] = 336 h, 14 days, negative log value, read-out: Soft Agar Assay Log IC50 (converted)
[8] = soft agar, read-out: IC50, inhibition of EGF-mediated transformation

Structure (SMILES) | minimal effective concentration ([2]; 336 h, 14 days) [µM] | Pharmacological property at β2-AR [3] | SRB Assay Log IΔ2*PSD ([4]; 72 hr) | Toxicity label [4] | IC50 [2, 7] [µM] | Emax [2] [%] | further results
Oc1cccc2[nH]c3ccccc3c12 [4-OHC, 4-Hydroxycarbazole] |  |  |  |  |  |  | effect on UV-induced skin thickening, words ([1]; wild type mice): little effect in wild type mice; effect on UV-induced skin thickening, words ([1]; β2-AR knockout mice): no effect in knockout mice
CCCC(=O)Nc1ccc(OCC(O)CNC(C)C)c(C(C)=O)c1 (stereo not shown) [Acebutolol] | 49 | Partial agonist [56] | -3.39 ± 0.70 log [M] | Toxic |  |  | 
C=CCc1ccccc1OCC(O)CNC(C)C (stereo not shown) [Alprenolol] |  | Biased agonist/ activates ERK [43] | -4.95 ± 0.06 log [M] |  | 0.427 | 93.8 ± 2.88 | 
CC(C)NCC(O)COc1ccc(CC(N)=O)cc1 (stereo not shown) [Atenolol] |  | Inverse agonist for cAMP [50] |  |  |  | 47.9 ± 7.81 | Soft Agar Assay Log IC50 ([5]; 10 ng/mL EGF, negative log value): -5.04 ± 0.27 [19] log [M]; effect on EGF-mediated transformation of JB6 P+ cells, words ([5]; previous data): less potent and displayed partial efficacy; IC50 ([5]; previously published atenolol, read-out: IC50, inhibition of EGF-mediated transformation): 9.19 µM
Cc1ccc(Cl)c(OCC(O)CNC(C)(C)C)c1 (stereo not shown) [Bupranolol] |  | Antagonist, not specified | -4.80 ± 0.05 log [M] | Toxic |  |  | 
CC(C)(C)NCC(O)COc1cccc2[nH]c(=O)[nH]c12 (stereo not shown) [CGP 12177] | 7.59 | Partial agonist [53] | -4.46 ± 0.19 log [M] | Toxic |  |  | effect on EGF-mediated transformation of JB6 P+ cells, words ([2]; soft agar): do not prevent EGF-induced transformation of JB6 P+ cells
CC(C)NCC(O)COc1cccc2[nH]c3ccccc3c12 (stereo not shown) [Carazolol] | 7.41 |  | -5.00 ± 0.14 log [M] | Toxic |  |  | 
Cl.O=C1c2ccccc2CCC1CNCCc1ccc(O)cc1 (stereo not drawn) [HEAT HCl, 2-{[β-(4-Hydroxyphenyl)ethyl]aminomethyl}-1-tetralone hydrochloride] | 0.145 |  | -5.99 ± 0.03 log [M] |  |  |  | effect on EGF-mediated transformation of JB6 P+ cells, words ([2]; soft agar): only inhibited colony formation at 1 and 10 μM; also recorded: do not prevent EGF-induced transformation of JB6 P+ cells; Kd [6]: 0.000361 ± 8e-05 µM; toxicity in SRB assay, words ([4]; 72 hr): toxicity at 10 μM
Cc1ccc(OCC(O)C(C)NC(C)C)c2c1CCC2 (stereo not shown) [ICI 118,551] | 3.39 | Inverse agonist for cAMP that recruits ±-arr [29, 49] | -3.59 ± 0.50 log [M] | Toxic | 4.47 |  | 
CC(C)NCC(O)c1ccc(O)c(O)c1 (stereo not shown) [Isoproterenol] | 24.5 | Full equipotent agonist [44, 58] | -4.77 ± 0.16 log [M] | Toxic |  |  | effect on EGF-mediated transformation of JB6 P+ cells, words ([2]; soft agar): failed to increase EGF-mediated transformation of JB6 P+ cells
CC(CCc1ccccc1)NCC(O)c1ccc(O)c(C(N)=O)c1 (stereo not shown) [Labetalol] |  | Partial agonist for cAMP and full agonist for ERK [44, 45] |  |  | 0.501 | 90.3 ± 8.48 | 
COCCc1ccc(OCC(O)CNC(C)C)cc1 (stereo not shown) [Metoprolol] | 24.5 | Inverse agonist for cAMP [51] | -4.52 ± 0.20 log [M] | Toxic |  |  | 
CC(C)(C)NCC(O)COc1cccc2c1CC(O)C(O)C2 (stereo not shown) [Nadolol] | 4.68 | Inverse agonist for cAMP [44, 57] |  |  |  |  | effect on EGF-mediated transformation of JB6 P+ cells, words ([2]; soft agar): do not prevent EGF-induced transformation of JB6 P+ cells
CC(C)NCC(O)c1ccc2ccccc2c1 (stereo not shown) [Pronethalol] |  | Inverse agonist for cAMP [48] | -4.86 ± 0.23 log [M] |  | 2.51 | 100 | IC50 [2, 8]: 2.53 µM
CC(C)NCC(O)COc1cccc2ccccc12 (stereo not shown) [Propranolol] | 5.5 | Inverse agonist for cAMP that recruits ±-arr [29, 51] | -4.20 ± 0.11 log [M] |  |  |  | 
CC(C)(C)NC[C@H](O)COc1nsnc1N1CCOCC1 [Timolol] |  | Inverse agonist for cAMP [48] | -4.22 ± 0.34 log [M] |  | 3.31 | 100 | IC50 [2, 8]: 3.31 µM

Reference: paper PMC6527222 (PLoS ONE, 2019)
